Counter-ions that a name gives are not always drawn.
Assays:
[1] = HepG2 cell cytotoxicity, ATP decrease; assay type: cell-based; conditions: human
Method: (§1) Compounds of the invention were evaluated for cytotoxicity using standard methods known in the art. Specifically, cytotoxicity was evaluated using HEPG2 cells and monitoring ATP decrease and determining the EC50 value. […]

HepG2 cell = HepG2 cell cytotoxicity, ATP decrease; assay type: cell-based; conditions: human
Method: as §1

VDR = biological target: T1, VDR (Homo sapiens, UniProt P11473); assay: NR selectivity assay VDR; conditions: unnamed ref standard 0.005 μM
T1 sequence (P11473 1-427): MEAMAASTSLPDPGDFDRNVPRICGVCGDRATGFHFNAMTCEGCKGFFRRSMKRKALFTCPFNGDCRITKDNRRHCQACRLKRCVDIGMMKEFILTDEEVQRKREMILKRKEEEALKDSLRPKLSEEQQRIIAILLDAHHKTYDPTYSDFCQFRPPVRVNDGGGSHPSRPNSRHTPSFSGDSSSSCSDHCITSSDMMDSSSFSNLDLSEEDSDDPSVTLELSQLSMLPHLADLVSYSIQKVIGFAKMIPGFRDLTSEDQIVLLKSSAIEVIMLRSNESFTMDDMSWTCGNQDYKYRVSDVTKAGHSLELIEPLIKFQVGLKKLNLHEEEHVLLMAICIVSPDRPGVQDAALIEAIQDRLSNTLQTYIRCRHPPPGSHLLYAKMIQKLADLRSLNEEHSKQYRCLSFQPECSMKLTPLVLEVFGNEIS

PXR = biological target: T2, PXR (Homo sapiens, UniProt O75469); assay: PXR ligands competition assay (binding assay)
T2 sequence (O75469 1-434): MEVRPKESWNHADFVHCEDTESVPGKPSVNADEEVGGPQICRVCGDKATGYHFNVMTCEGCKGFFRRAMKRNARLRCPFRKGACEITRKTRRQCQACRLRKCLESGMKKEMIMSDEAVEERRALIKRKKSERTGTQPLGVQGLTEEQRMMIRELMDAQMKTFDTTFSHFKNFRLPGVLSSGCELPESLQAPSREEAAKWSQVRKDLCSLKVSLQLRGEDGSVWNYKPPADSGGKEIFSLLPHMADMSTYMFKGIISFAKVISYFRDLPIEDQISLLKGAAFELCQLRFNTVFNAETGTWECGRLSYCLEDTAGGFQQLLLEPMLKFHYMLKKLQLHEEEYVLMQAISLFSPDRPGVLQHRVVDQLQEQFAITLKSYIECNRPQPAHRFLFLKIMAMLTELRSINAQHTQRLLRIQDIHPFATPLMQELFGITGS
Method: (§2) The selectivity of compounds of the invention was evaluated using assay methods known in the art. Specifically, the following assay methods were used: • FXR and LXR: Coactivator Recruitment (alphascreen); • TGR5: cAMP level on human intestinal cell line (NCI-H716); • PXR: Ligands Competition assay (Binding Assay) • CAR: Coactivator Recruitment (Lanthascreen)

Intestinal Bacteria = assay: In vitro metabolic stability in human stool culture; conditions: human stool culture
Method: Homogenized fresh human stools (500 mg) were transferred into sterile vials to which 5 mL of sterilized chopped meat-glucose medium (Scott Lab., Fiskville, R.I.) was added. BA were then added at a final concentration of 0.05 mM. Vials were incubated at 37° C.; then, at 0, 1, 2, 4, 8 and 24 h after the addition of the BA, the reaction was stopped with 150 μL of 30% KOH. The samples were centrifuged at 3500 rpm for 10 min; from the supernatant the BA were isolated by C-18 solid-phase extraction and analyzed by TLC and HPLC-ES-MS/MS.
Thin-layer chromatography (TLC), utilizing silica gel 0.25 mm thickness plates (Merck, Darmstat, Germany), was employed as the first screening test. The solvent system used for the separation of conjugated BA was composed of propionic acid/isoamyl acetate/water/N-propanol (3:4:1:2, v/v/v/v; solvent I), and that of the unconjugated BA was acetic acid/carbon tetrachloride/isopropyl ether/isoamyl acetate/water/N-propanol/benzene (1:4:6:8:2:2, v/v/v/v/v/v; solvent II).

PPARδ = biological target: T3, PPARδ (Homo sapiens, UniProt Q03181); assay: NR selectivity assay PPARδ; conditions: unnamed ref standard 0.004 μM
T3 sequence (Q03181 1-441): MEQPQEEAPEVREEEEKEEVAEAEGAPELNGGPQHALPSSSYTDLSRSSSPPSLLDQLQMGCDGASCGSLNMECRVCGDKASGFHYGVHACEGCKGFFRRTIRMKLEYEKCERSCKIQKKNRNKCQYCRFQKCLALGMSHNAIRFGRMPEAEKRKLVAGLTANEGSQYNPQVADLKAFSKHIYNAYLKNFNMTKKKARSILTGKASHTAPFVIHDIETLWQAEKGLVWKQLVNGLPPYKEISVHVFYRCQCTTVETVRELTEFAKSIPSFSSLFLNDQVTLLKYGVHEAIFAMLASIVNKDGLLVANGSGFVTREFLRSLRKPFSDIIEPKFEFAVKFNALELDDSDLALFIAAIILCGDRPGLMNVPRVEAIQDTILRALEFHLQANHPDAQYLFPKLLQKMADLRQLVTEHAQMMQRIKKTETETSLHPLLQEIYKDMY

bovine serum albumin = biological target: T4, bovine serum albumin (Bos taurus, UniProt P02769); assay: Albumin binding by equilibrium dialysis; assay type: in vitro ADME; conditions: 100 μM BA in 5% bovine serum albumin-saline, pH 7.2
T4 construct: dissolved at a concentration of 100 μM in 5% bovine serum albumin-saline solution (pH 7.2); from tissue; host or cells: bovine serum (only from the protein's name)
Method: The extent of albumin binding was evaluated by equilibrium dialysis at a fixed BA-albumin ratio. BA was dissolved at a concentration of 100 μM in 5% bovine serum albumin-saline solution (pH 7.2) and left to stand for 24 h at 25° C. Two milliliters of this solution was dialyzed in cellulose sacs having a molecular weight cut-off of 12-14,000 against 25 ml of saline solution. The system was equilibrated by mechanical gently shaking for 72 h at 25° C. BA concentrations of the dialyzed solution (corresponding to the free unbound fraction) and of the starting solution were determined with HPLC-ESI-MS/MS in the same conditions of the previous analysis. The percent of albumin binding was calculate from the initial BA concentration and from the unbound concentration in the dialyzed fraction. All these compounds never less present an albumin binding compatible with a relatively fast hepatic uptake, similarly to natural occurring BA. Accordingly different kinetics (slower) of the liver uptake is expected.

hTGR5 = biological target: T5, hTGR5 (Homo sapiens, UniProt Q8TDU6); assay: FRET-cAMP on TGR5 over-expressing HEH293 cells; assay type: cell-based
T5 sequence (Q8TDU6 1-330): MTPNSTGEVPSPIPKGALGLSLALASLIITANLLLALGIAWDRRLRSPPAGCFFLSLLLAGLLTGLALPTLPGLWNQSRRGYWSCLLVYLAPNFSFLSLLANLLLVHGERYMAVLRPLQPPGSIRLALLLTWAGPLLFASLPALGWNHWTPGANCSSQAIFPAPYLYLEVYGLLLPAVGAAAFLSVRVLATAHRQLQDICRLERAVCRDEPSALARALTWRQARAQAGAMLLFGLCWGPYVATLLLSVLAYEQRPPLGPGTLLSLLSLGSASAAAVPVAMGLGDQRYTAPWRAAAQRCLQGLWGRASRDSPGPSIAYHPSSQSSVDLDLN
Method: Assays were performed in triplicate or quadruplicate for each condition. EC50 values were determined by probit analysis. […] After subtracting the average value of the basal (vehicle-treated) condition, values were applied to EC50 and/or efficacy determinations. Calculation of average EC50 and comparison of the EC50 between different compounds were done after transformation to logarithms.

CAR = biological target: T6, CAR (Homo sapiens, UniProt Q14994); assay: CAR coactivator recruitment (Lanthascreen); assay type: biochemical
T6 sequence (Q14994 1-352): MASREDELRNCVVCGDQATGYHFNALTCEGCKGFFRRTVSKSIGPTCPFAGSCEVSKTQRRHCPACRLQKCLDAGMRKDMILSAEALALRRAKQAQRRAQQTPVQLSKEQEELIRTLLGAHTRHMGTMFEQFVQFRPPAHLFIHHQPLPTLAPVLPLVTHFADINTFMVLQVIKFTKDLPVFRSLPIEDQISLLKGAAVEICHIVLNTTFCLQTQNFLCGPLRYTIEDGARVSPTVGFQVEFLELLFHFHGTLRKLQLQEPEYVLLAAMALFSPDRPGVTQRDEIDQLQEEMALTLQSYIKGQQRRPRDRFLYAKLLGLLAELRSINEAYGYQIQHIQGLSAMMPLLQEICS
Method: as §2

T4 sequence (P02769 25-607): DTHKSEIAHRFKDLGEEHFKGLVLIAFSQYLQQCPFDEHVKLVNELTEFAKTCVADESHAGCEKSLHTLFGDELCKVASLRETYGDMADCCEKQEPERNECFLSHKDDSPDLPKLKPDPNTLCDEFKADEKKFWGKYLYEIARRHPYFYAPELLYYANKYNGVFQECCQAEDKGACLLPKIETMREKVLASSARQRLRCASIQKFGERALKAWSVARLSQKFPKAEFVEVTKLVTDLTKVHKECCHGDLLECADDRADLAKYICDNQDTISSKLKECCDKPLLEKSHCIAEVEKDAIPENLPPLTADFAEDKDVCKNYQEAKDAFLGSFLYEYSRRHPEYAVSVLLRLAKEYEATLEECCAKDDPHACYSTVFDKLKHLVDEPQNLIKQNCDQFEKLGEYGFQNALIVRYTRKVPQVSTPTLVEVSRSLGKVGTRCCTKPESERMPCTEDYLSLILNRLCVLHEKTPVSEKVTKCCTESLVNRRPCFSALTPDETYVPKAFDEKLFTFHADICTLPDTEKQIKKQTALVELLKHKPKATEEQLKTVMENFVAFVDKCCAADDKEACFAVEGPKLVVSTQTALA

| Structure (SMILES) | EC50 [1] | EC50 (HepG2 cell) | VDR EC50 (VDR) | EC50 (PXR) | side chain stability (Intestinal Bacteria) | PPARδ EC50 (PPARδ) | Albumin Binding (bovine serum albumin) | EC50 (hTGR5) | EC50 (CAR) |
| --- | --- | --- | --- | --- | --- | --- | --- | --- | --- |
| CCC1C(O)C2C3CCC(C(C)CC(C)OS(=O)(=O)O)C3(C)CCC2C2(C)CCC(O)CC12 [Compound 2A, 3α,7α,23-trihydroxy-6α-ethyl-23(S)-methyl-24-nor-5β-cholan-23-sulfate Sodium Salt] | > 1000 µM | > 1000 µM | No | 21 µM | quite stable | No | 97% | 0.025 µM | 84 µM |
| CC[C@H]1[C@@H](O)[C@@H]2[C@H](C[C@H](O)[C@]3(C)[C@@H]([C@H](C)CCCS(=O)(=O)[O-])CC[C@@H]23)[C@@]2(C)CC[C@@H](O)C[C@@H]12.[Na+] [Compound 3A, 3α,7α,12α-trihydroxy-6α-ethyl-5β-cholan-24-sulfonate Sodium Salt] | > 1000 µM | > 1000 µM | No | 150 µM | very stable | No | 81% | 0.011 µM | > 250 µM |
